# Measurements from US11759462B2, “Spirocyclic compounds as tryptophan hydroxylase inhibitors” (priority 2013, dated 2023).
# Biological target: T1, Recombinant human TPH1 (MBP tagged) (Homo sapiens, UniProt P17752)
# T1 construct: cloning full length human TPH1 cDNA in to a bacterial pMAL-c5E expression vector; made in house; host or cells: E. coli BL21 (DE3)
# T1 sequence (P17752 1-444): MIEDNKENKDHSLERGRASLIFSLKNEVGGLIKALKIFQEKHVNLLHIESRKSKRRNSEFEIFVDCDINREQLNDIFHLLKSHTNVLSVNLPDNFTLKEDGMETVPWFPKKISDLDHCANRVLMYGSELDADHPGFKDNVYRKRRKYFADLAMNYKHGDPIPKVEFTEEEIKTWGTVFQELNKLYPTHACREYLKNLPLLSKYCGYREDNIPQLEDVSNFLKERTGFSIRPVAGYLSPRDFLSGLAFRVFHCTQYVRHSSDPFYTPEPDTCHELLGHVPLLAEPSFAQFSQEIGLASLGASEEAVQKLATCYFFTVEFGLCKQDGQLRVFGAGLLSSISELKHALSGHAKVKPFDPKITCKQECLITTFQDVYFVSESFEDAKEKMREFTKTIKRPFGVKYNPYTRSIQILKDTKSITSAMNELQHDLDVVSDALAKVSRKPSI
# Experiment: TPH1 in vitro inhibition assay (kinetic fluorescence)
# Assay type: biochemical
# Details: read-out: TPH1 Range (TPH1 inhibition IC50)
# How it was run: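 Final mix: 15 nM MBP-TPH1, 30 μM Trp, 36 μM 6-methyltetrahydropterin, 25 μM ferrous ammonium sulfate, 50 mM MES pH 7.1, 1% DMSO, room temperature.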
row,IC50,Compound
1,< 50 nM,"Cc1ccn(-c2cc(-c3ccc(Cl)cc3)ccc2[C@@H](Oc2cc(N3CCC4(CC3)CN[C@H](C(=O)O)C4)nc(N)n2)C(F)(F)F)n1 [Example 1ah, (S)-8-(2-amino-6-((R)-1-(4′-chloro-3-(3-methyl-1H-pyrazol-1-yl)-[1,1′-biphenyl]-4-yl)-2,2,2-trifluoroethoxy)pyrimidin-4-yl)-2,8-diazaspiro[4.5]decane-3-carboxylic acid]"
2,50 to 300 nM,"Cc1ccn(-c2cc(C3=CCOCC3)ccc2[C@@H](Oc2cc(N3CCC4(CC3)CN[C@H](C(=O)O)C4)nc(N)n2)C(F)(F)F)n1 [Example 1j, (S)-8-(2-amino-6-((R)-1-(4-(3,6-dihydro-2H-pyran-4-yl)-2-(3-methyl-1H-pyrazol-1-yl)phenyl)-2,2,2-trifluoroethoxy)pyrimidin-4-yl)-2,8-diazaspiro[4.5]decane-3-carboxylic acid]"
3,300 to 3000 nM,"Nc1nc(O[C@H](c2ccc(Cl)cc2-c2cccc(C(=O)O)c2)C(F)(F)F)cc(N2CCC3(CC2)CN[C@H](C(=O)O)C3)n1 [Example 34ab, (S)-8-(2-amino-6-((R)-1-(3′-carboxy-5-chloro-[1,1′-biphenyl]-2-yl)-2,2,2-trifluoroethoxy)pyrimidin-4-yl)-2,8-diazaspiro[4.5]decane-3-carboxylic acid]"
4,300 to 3000 nM,"Nc1nc(NCc2ccc3ccccc3c2)nc(N2CCC3(CC2)CNC(C(=O)O)C3)n1 (centres unmarked) [Example 39a, 8-(4-Amino-6-((naphthalen-2-ylmethyl)amino)-1,3,5-triazin-2-yl)-2,8-diazaspiro[4.5]decane-3-carboxylic acid]"
5,300 to 3000 nM,"Nc1nc(NCc2c(Oc3ccccc3)cccc2N2CCCCC2)cc(N2CCC3(CC2)CN[C@H](C(=O)O)C3)n1 [Example 41b, (S)-8-(2-amino-6-((2-phenoxy-6-(piperidin-1-yl)benzyl)amino)pyrimidin-4-yl)-2,8-diazaspiro[4.5]decane-3-carboxylic acid]"
6,< 50 nM,"CCOc1ccc(-c2ccc([C@@H](Oc3cc(N4CCC5(CC4)CN[C@H](C(=O)O)C5)nc(N)n3)C(F)(F)F)cc2)cc1 [Example 55do, (S)-8-(2-amino-6-((R)-1-(4′-ethoxy-[1,1′-biphenyl]-4-yl)-2,2,2-trifluoroethoxy)pyrimidin-4-yl)-2,8-diazaspiro[4.5]decane-3-carboxylic acid]"
7,50 to 300 nM,"CNC(=O)c1ccc(-c2ccc([C@@H](Oc3cc(N4CCC5(CC4)CN[C@H](C(=O)O)C5)nc(N)n3)C(F)(F)F)c(-n3ccc(C)n3)c2)cc1 [Example 1ch, (S)-8-(2-amino-6-((R)-2,2,2-trifluoro-1-(3-(3-methyl-1H-pyrazol-1-yl)-4′-(methylcarbamoyl)-[1,1′-biphenyl]-4-yl)ethoxy)pyrimidin-4-yl)-2,8-diazaspiro[4.5]decane-3-carboxylic acid]"
8,50 to 300 nM,"Cc1ccn(-c2cc(-c3ccc(F)c(F)c3)ccc2[C@@H](Oc2cc(N3CCC4(CC3)CN[C@H](C(=O)O)C4)nc(C)n2)C(F)(F)F)n1 [Example 29c, (S)-8-(6-((R)-1-(3′,4′-difluoro-3-(3-methyl-1H-pyrazol-1-yl)-[1,1′-biphenyl]-4-yl)-2,2,2-trifluoroethoxy)-2-methylpyrimidin-4-yl)-2,8-diazaspiro[4.5]decane-3-carboxylic acid]"
9,50 to 300 nM,"Cc1ccn(-c2cc(-c3ccc(S(N)(=O)=O)cc3)ccc2[C@@H](Oc2cc(N3CCC4(CC3)CN[C@H](C(=O)O)C4)nc(N)n2)C(F)(F)F)n1 [Example 1cf, (S)-8-(2-amino-6-((R)-2,2,2-trifluoro-1-(3-(3-methyl-1H-pyrazol-1-yl)-4′-sulfamoyl-[1,1′-biphenyl]-4-yl)ethoxy)pyrimidin-4-yl)-2,8-diazaspiro[4.5]decane-3-carboxylic acid]"
10,50 to 300 nM,"CCCOc1ccc(-c2ccc([C@@H](Oc3cc(N4CCC5(CC4)CN[C@H](C(=O)O)C5)nc(N)n3)C(F)(F)F)cc2)cc1 [Example 55dd, (S)-8-(2-amino-6-((R)-2,2,2-trifluoro-1-(4′-propoxy-[1,1′-biphenyl]-4-yl)ethoxy)pyrimidin-4-yl)-2,8-diazaspiro[4.5]decane-3-carboxylic acid]"
11,50 to 300 nM,"Nc1nc(O[C@H](c2ccc(-c3ccncc3)cc2)C(F)(F)F)cc(N2CCC3(CC2)CN[C@H](C(=O)O)C3)n1 [Example 55ax, (S)-8-(2-amino-6-((R)-2,2,2-trifluoro-1-(4-(pyridin-4-yl)phenyl)ethoxy)pyrimidin-4-yl)-2,8-diazaspiro[4.5]decane-3-carboxylic acid]"
12,50 to 300 nM,"Nc1nc(O[C@H](c2ccc(Cl)cc2-c2ccc(Cl)c(C(F)(F)F)c2)C(F)(F)F)cc(N2CCC3(CC2)CN[C@H](C(=O)O)C3)n1 [Example 34am, (S)-8-(2-amino-6-((R)-1-(4′,5-dichloro-3′-(trifluoromethyl)-[1,1′-biphenyl]-2-yl)-2,2,2-trifluoroethoxy)pyrimidin-4-yl)-2,8-diazaspiro[4.5]decane-3-carboxylic acid]"
13,50 to 300 nM,"Nc1nc(O[C@H](c2ccc(-c3ccc4cccnc4c3)cc2)C(F)(F)F)cc(N2CCC3(CC2)CN[C@H](C(=O)O)C3)n1 [Example 55bh, (S)-8-(2-amino-6-((R)-2,2,2-trifluoro-1-(4-(quinolin-7-yl)phenyl)ethoxy)pyrimidin-4-yl)-2,8-diazaspiro[4.5]decane-3-carboxylic acid]"
14,50 to 300 nM,"Nc1nc(O[C@H](c2ccc(Cl)cc2-c2ccccn2)C(F)(F)F)cc(N2CCC3(CC2)CN[C@H](C(=O)O)C3)n1 [Example 34cs, (S)-8-(2-amino-6-((R)-1-(4-chloro-2-(pyridin-2-yl)phenyl)-2,2,2-trifluoroethoxy)pyrimidin-4-yl)-2,8-diazaspiro[4.5]decane-3-carboxylic acid]"
15,300 to 3000 nM,"Nc1nc(NCc2ccccc2N2CCCCC2)cc(N2CCC3(CC2)CN[C@H](C(=O)O)C3)n1 [Example 41a, (S)-8-(2-Amino-6-((2-(piperidin-1-yl)benzyl)amino)pyrimidin-4-yl)-2,8-diazaspiro[4.5]decane-3-carboxylic acid]"
16,50 to 300 nM,"COc1cc(C#N)cc(-c2ccc([C@@H](Oc3cc(N4CCC5(CC4)CN[C@H](C(=O)O)C5)nc(N)n3)C(F)(F)F)cc2)c1 [Example 55aa, (S)-8-(2-amino-6-((R)-1-(3′-cyano-5′-methoxy-[1,1′-biphenyl]-4-yl)-2,2,2-trifluoroethoxy)pyrimidin-4-yl)-2,8-diazaspiro[4.5]decane-3-carboxylic acid]"
17,< 50 nM,"CCCOC(=O)c1ccc([C@@H](Oc2cc(N3CCC4(CC3)CN[C@H](C(=O)O)C4)nc(N)n2)C(F)(F)F)c(-n2ccc(C)n2)c1 [Example 18b, (S)-8-(2-amino-6-((R)-2,2,2-trifluoro-1-(2-(3-methyl-1H-pyrazol-1-yl)-4-(propoxycarbonyl)phenyl)ethoxy)pyrimidin-4-yl)-2,8-diazaspiro[4.5]decane-3-carboxylic acid]"
18,< 50 nM,"Cc1ccn(-c2cc(-c3ccc(OC(C)C)c(F)c3)ccc2[C@@H](Oc2cc(N3CCC4(CC3)CN[C@H](C(=O)O)C4)nc(N)n2)C(F)(F)F)n1 [Example 1ax, (S)-8-(2-amino-6-((R)-2,2,2-trifluoro-1-(3′-fluoro-4′-isopropoxy-3-(3-methyl-1H-pyrazol-1-yl)-[1,1′-biphenyl]-4-yl)ethoxy)pyrimidin-4-yl)-2,8-diazaspiro[4.5]decane-3-carboxylic acid]"
19,< 50 nM,"Cc1ccn(-c2cc(-c3ccc(S(C)(=O)=O)cc3)ccc2[C@@H](Oc2cc(N3CCC4(CC3)CN[C@H](C(=O)O)C4)nc(C)n2)C(F)(F)F)n1 [Example 29b, (S)-8-(2-methyl-6-((R)-2,2,2-trifluoro-1-(3-(3-methyl-1H-pyrazol-1-yl)-4′-(methylsulfonyl)-[1,1′-biphenyl]-4-yl)ethoxy)pyrimidin-4-yl)-2,8-diazaspiro[4.5]decane-3-carboxylic acid]"
20,50 to 300 nM,"Nc1nc(O[C@H](c2ccc(Cl)cc2-c2cccc(OC3CCCC3)c2)C(F)(F)F)cc(N2CCC3(CC2)CN[C@H](C(=O)O)C3)n1 [Example 34cb, (S)-8-(2-amino-6-((R)-1-(5-chloro-3′-(cyclopentyloxy)-[1,1′-biphenyl]-2-yl)-2,2,2-trifluoroethoxy)pyrimidin-4-yl)-2,8-diazaspiro[4.5]decane-3-carboxylic acid]"
21,< 50 nM,"COc1ncc(-c2ccc([C@@H](Oc3cc(N4CCC5(CC4)CN[C@H](C(=O)O)C5)nc(C)n3)C(F)(F)F)c(-n3ccc(C)n3)c2)cn1 [Example 29g, (S)-8-(2-methyl-6-((R)-2,2,2-trifluoro-1-(4-(2-methoxypyrimidin-5-yl)-2-(3-methyl-1H-pyrazol-1-yl)phenyl)ethoxy)pyrimidin-4-yl)-2,8-diazaspiro[4.5]decane-3-carboxylic acid]"

row,Compound,IC50
1,"(S)-8-(2-Amino-6-((4-(3-methyl-H-indazol-6-yl)phenoxy)methyl)pyrimidin-4-yl)-2,8-diazaspiro[4.5]decane-3-carboxylic acid [Example 61]",50 to 300 nM
2,"(S)-8-(2-amino-6-((R)-1-(5-chloro-3′-isopropyl-[1,1′- biphenyl]-2-yl)-2,2,2-trifluoroethoxy)pyrimidin-4- yl)-2,8-diazaspiro[4.5]decane-3-carboxylic acid [Example 34ce]",50 to 300 nM
